Experimental data from patent US6204294A, “IL-8 receptor antagonists” (SmithKline Beecham Corporation, priority 1999, dated 2001).

Tested on: recombinant human IL-8 type β receptor (IL-8Rβ, Type II, permissive receptor)
Experiment: Receptor binding assay, permissive model (IL-8b), [125I]IL-8 on CHO membranes
Settings: recombinant IL-8Rβ CHO membranes; compound without an ionizable proton in the 2-position
From the text: [^125 I]IL-8 (human recombinant) was obtained from Amersham Corp., Arlington Heights, Ill., with specific activity 2000 Ci/mmol. Gro-α was obtained from NEN- New England Nuclear. All other chemicals were of analytical grade. High levels of recombinant human IL-8 type α and β receptors were individually expressed in Chinese hamster ovary cells as described previously (Holmes, et al., Science, 1991, 253, 1278). The Chinese hamster ovary membranes were homogenized according to a previously described protocol (Haour, et al., J Biol Chem., 249 pp 2195-2205 (1974)). Except that the homogenization buffer was changed to 10mM Tris-HCL, 1mM MgS04, 0.5mM EDTA (ethylene-diaminetetra-acetic acid), 1mMPMSF (α-toluenesulphonyl fluoride), 0.5 mg/L Leupeptin, pH 7.5. Membrane protein concentration was determined using Pierce Co. micro-assay kit using bovine serum albumin as a standard. All assays were performed in a 96-well micro plate format. Each reaction mixture contained ^125 I IL-8 (0.25 nM) or ^125 I Gro-α and 0.5 μg/mL of IL-8Rα or 1.0 μg/mL of IL-8Rβ membranes in 20 mM Bis-Trispropane and 0.4 mM Tris HCl buffers, pH 8.0, containing 1.2 mM MgSO4, 0.1 mM EDTA, 25 mM NaCl and 0.03% CHAPS. […] The filter was then dried and counted on the Betaplate liquid scintillation counter. […]

activity in the permissive model (IL-8b) IL-8 receptor inhibition assay, result in words: inactive
SMILES: C=CCOc1cc(C#N)ccc1NC(=NC#N)Nc1ccccc1Br [N-(2-Allyloxy-4-cyano-phenyl)-N'-(2-bromophenyl)-N"-cyanoguanidine]
